Test results from patent US9359367B2, “Tetrahydroquinazolinone derivatives as PARP inhibitors” (Lupin Limited, priority 2012, dated 2016).

Target: T1, PARP1 (Homo sapiens, UniProt P09874)
T1 construct: purchased BPS Bioscience
Assay: PARP1 Biochemical Assay (BPS Bioscience kit, chemiluminescence)
Details: histone-coated plate, biotinilated NAD+, 25° C. for 60 min, luminescence, read-out: PARP 1 inhibition IC50
Method in brief: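 Human PARP1 (25–75 ng/well) with activated DNA was incubated with compound on histone-coated wells. Biotinylated NAD+ was added and the reaction ran 60 min at 25 °C. Ribosylation was detected by streptavidin-HRP chemiluminescence, % inhibition was normalised to enzyme-free and uninhibited controls, and IC50 was fitted from % inhibition versus concentration.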

T1 sequence (P09874 whole entry): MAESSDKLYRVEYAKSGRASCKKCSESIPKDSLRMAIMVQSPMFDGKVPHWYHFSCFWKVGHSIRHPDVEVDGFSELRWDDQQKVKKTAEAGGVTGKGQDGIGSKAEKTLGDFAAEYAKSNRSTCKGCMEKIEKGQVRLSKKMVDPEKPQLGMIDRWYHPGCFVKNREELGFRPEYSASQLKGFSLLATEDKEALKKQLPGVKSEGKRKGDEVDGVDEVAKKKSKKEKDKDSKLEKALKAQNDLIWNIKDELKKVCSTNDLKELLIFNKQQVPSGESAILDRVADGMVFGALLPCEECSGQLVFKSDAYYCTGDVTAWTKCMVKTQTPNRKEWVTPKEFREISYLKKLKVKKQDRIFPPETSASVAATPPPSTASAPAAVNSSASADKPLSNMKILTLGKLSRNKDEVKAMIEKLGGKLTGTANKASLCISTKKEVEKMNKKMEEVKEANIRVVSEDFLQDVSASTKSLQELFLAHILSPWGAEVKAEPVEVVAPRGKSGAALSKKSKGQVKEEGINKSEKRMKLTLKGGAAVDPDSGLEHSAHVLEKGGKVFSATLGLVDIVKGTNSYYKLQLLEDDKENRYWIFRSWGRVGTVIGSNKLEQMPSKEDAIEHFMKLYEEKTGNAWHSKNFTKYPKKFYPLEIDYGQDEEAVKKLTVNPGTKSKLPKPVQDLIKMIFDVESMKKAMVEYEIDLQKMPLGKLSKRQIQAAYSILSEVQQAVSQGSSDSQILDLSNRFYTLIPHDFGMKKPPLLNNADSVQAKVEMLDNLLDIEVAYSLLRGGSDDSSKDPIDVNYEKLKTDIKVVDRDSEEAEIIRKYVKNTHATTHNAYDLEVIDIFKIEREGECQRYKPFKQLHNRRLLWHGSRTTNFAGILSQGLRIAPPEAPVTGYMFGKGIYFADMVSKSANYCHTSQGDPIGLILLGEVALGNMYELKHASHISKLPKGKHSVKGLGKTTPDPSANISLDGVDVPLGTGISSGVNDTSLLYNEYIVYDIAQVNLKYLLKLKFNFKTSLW

IC50 [µM]	SMILES
0.001 to 0.5	O=c1[nH]c(C2=C[C@H](N3CCN(c4cccc(F)c4Cl)CC3)CC2)nc2c1CC1(CC2)CC1 [Compound 93, (R)-2′-(3-(4-(2-chloro-3-fluorophenyl)piperazin-1-yl)cyclopent-1-en-1-yl)-7′,8′-dihydro-3′H-spiro[cyclopropane-1,6′-quinazolin]-4′(5′H)-one]
0.001 to 0.5	O=c1[nH]c(C2=C[C@H](N3CCN(c4cccc(F)c4F)CC3)CC2)nc2c1CC1(CC2)CC1 [Compound 100, (R)-2′-(3-(4-(2,3-difluorophenyl)piperazin-1-yl)cyclopent-1-en-1-yl)-7′,8′-dihydro-3′H-spiro[cyclopropane-1,6′-quinazolin]-4′(5′H)-one]
0.001 to 0.5	CNC(=O)c1ccc(N2CCN([C@H]3C=C(c4nc5c(c(=O)[nH]4)CC4(CC5)CC4)CC3)CC2)cc1C [Compound 98, (R)—N, 2-dimethyl-4-(4-(3-(4′-oxo-4′,5′,7′,8′-tetrahydro-3′H-spiro[cyclopropane-1,6′-quinazolin]-2′-yl)cyclopent-2-en-1-yl)piperazin-1-yl)benzamide]
0.001 to 0.5	Cc1ccc(N2CCN([C@H]3C=C(c4nc5c(c(=O)[nH]4)CC4(CC5)CC4)CC3)CC2)cc1Cl [Compound 82, (R)-2′-(3-(4-(3-chloro-4-methylphenyl)piperazin-1-yl)cyclopent-1-en-1-yl)-7′,8′-dihydro-3′H-spiro[cyclopropane-1,6′-quinazolin]-4′(5′H)-one]
0.001 to 0.5	O=c1[nH]c(C2=C[C@H](N3CCN(c4cc(F)ccc4F)CC3)CC2)nc2c1CC1(CC2)CC1 [Compound 106, (R)-2′-(3-(4-(2,5-difluorophenyl)piperazin-1-yl)cyclopent-1-en-1-yl)-7′,8′-dihydro-3′H-spiro[cyclopropane-1,6′-quinazolin]-4′(5′H)-one]
0.001 to 0.5	Cc1ccc(N2CCN([C@H]3C=C(c4nc5c(c(=O)[nH]4)CC4(CC5)CC4)CC3)CC2)cc1F [Compound 84, (R)-2′-(3-(4-(3-fluoro-4-methylphenyl)piperazin-1-yl)cyclopent-1-en-1-yl)-7′,8′-dihydro-3′H-spiro[cyclopropane-1,6′-quinazolin]-4′(5′H)-one]
0.001 to 0.5	O=c1[nH]c(C2=C[C@H](N3CCN(c4ccccc4)CC3)CC2)nc2c1CC1(CC2)CC1 [Compound 117, (R)-2′-(3-(4-phenylpiperazin-1-yl)cyclopent-1-en-1-yl)-7′,8′-dihydro-3′H-spiro[cyclopropane-1,6′-quinazolin]-4′(5′H)-one]
0.001 to 0.5	O=c1[nH]c(C2=C[C@H](N3CCN(c4ccccc4F)CC3)CC2)nc2c1CC1(CC2)CC1 [Compound 116, (R)-2′-(3-(4-(2-fluorophenyl)piperazin-1-yl)cyclopent-1-en-1-yl)-7′,8′-dihydro-3′H-spiro[cyclopropane-1,6′-quinazolin]-4′(5′H)-one]
0.001 to 0.5	O=c1[nH]c(C2=C[C@@H](N3CCN(c4ccc(F)cc4)CC3)CC2)nc2c1CCCC21CC1 [Compound 49, (S)-2′-(3-(4-(4-fluorophenyl)piperazin-1-yl)cyclopent-1-en-1-yl)-6′,7′-dihydro-3′H-spiro[cyclopropane-1,8′-quinazolin]-4′(5′H)-one]
0.001 to 0.5	O=c1[nH]c(C2=C[C@H](N3CCN(c4ccc(Cl)cn4)CC3)CC2)nc2c1CC1(CC2)CC1 [Compound 57, (R)-2′-(3-(4-(5-chloropyridin-2-yl)piperazin-1-yl)cyclopent-1-en-1-yl)-7′,8′-dihydro-3′H-spiro[cyclopropane-1,6′-quinazolin]-4′(5′H)-one]
0.501 to 5	Cc1ccc(N2CCN([C@H]3C=C(c4nc5c(c(=O)[nH]4)CC4(CC5)CC4)CC3)CC2)cc1C [Compound 136, (R)-2′-(3-(4-(3,4-dimethylphenyl)piperazin-1-yl)cyclopent-1-en-1-yl)-7′,8′-dihydro-3′H-spiro[cyclopropane-1,6′-quinazolin]-4′(5′H)-one]
0.001 to 0.5	O=c1[nH]c(C2=CC(N3CCN(c4ccncc4)CC3)CC2)nc2c1CC1(CC2)CC1 (centres unmarked) [Compound 39, 2′-(3-(4-(pyridin-4-yl)piperazin-1-yl)cyclopent-1-en-1-yl)-7′,8′-dihydro-3′H-spiro[cyclopropane-1,6′-quinazolin]-4′(5′H)-one]
0.001 to 0.5	O=c1[nH]c(C2=C[C@H](N3CCN(c4ccc(F)c(F)c4)CC3)CC2)nc2c1CC1(CC2)CC1 [Compound 62, (R)-2′-(3-(4-(3,4-difluorophenyl)piperazin-1-yl)cyclopent-1-en-1-yl)-7′,8′-dihydro-3′H-spiro[cyclopropane-1,6′-quinazolin]-4′(5′H)-one]
0.001 to 0.5	CNC(=O)c1ccc(N2CCN([C@H]3C=C(c4nc5c(c(=O)[nH]4)CC4(CC5)CC4)CC3)CC2)cc1F [Compound 89, (R)-2-fluoro-N-methyl-4-(4-(3-(4′-oxo-4′,5′,7′,8′-tetrahydro-3′H-spiro[cyclopropane-1,6′-quinazolin]-2′-yl)cyclopent-2-en-1-yl)piperazin-1-yl)benzamide]
0.001 to 0.5	CNC(=O)c1ccc(N2CCN([C@@H]3C=C(c4nc5c(c(=O)[nH]4)CC4(CC5)CC4)CC3)CC2)cc1 [Compound 53, (S)—N-methyl-4-(4-(3-(4′-oxo-4′,5′,7′,8′-tetrahydro-3′H-spiro[cyclopropane-1,6′-quinazolin]-2′-yl)cyclopent-2-en-1-yl)piperazin-1-yl)benzamide]

The remaining lines, values behind:

SMILES	IC50 [µM]
CNC(=O)c1ccc(C2=CCN([C@H]3C=C(c4nc5c(c(=O)[nH]4)CC4(CC5)CC4)CC3)CC2)cc1 [Compound 72, (R)—N-methyl-4-(1-(3-(4′-oxo-4′,5′,7′,8′-tetrahydro-3′H-spiro[cyclopropane-1,6′-quinazolin]-2′-yl)cyclopent-2-en-1-yl)-1,2,3,6-tetrahydropyridin-4-yl)benzamide]	0.001 to 0.5
O=c1[nH]c(CCCN2CCN(c3ccncc3)CC2)nc2c1CC1(CC2)CC1 [Compound 29, 2′-(3-(4-(pyridin-4-yl)piperazin-1-yl)propyl)-7′,8′-dihydro-3′H-spiro[cyclopropane-1,6′-quinazolin]-4′(5′H)-one]	0.001 to 0.5
O=c1[nH]c([C@@H]2CC[C@H](N3CCN(c4cccc(F)c4)CC3)C2)nc2c1CC1(CC2)CC1 [Compound 153, 2′-((1R,3S)-3-(4-(3-fluorophenyl)piperazin-1-yl)cyclopentyl)-7′,8′-dihydro-3′H-spiro[cyclopropane-1,6′-quinazolin]-4′(5′H)-one]	5 to 500
Cc1c(Cl)cccc1N1CCN([C@H]2C=C(c3nc4c(c(=O)[nH]3)CC3(CC4)CC3)CC2)CC1 [Compound 143, (R)-2′-(3-(4-(3-chloro-2-methylphenyl)piperazin-1-yl)cyclopent-1-en-1-yl)-7′,8′-dihydro-3′H-spiro[cyclopropane-1,6′-quinazolin]-4′(5′H)-one]	0.001 to 0.5
O=c1[nH]c(C2=C[C@H](N3CC=C(c4ccc(Cl)cc4)CC3)CC2)nc2c1CC1(CC2)CC1 [Compound 46, (R)-2′-(3-(4-(4-chlorophenyl)-5,6-dihydropyridin-1(2H)-yl)cyclopent-1-en-1-yl)-7′,8′-dihydro-3′H-spiro[cyclopropane-1,6′-quinazolin]-4′(5′H)-one]	0.001 to 0.5
CNC(=O)c1cnc(N2CCN([C@H]3C=C(c4nc5c(c(=O)[nH]4)CC4(CC5)CC4)CC3)CC2)c(F)c1 [Compound 112, (R)-5-fluoro-N-methyl-6-(4-(3-(4′-oxo-4′,5′,7′,8′-tetrahydro-3′H-spiro[cyclopropane-1,6′-quinazolin]-2′-yl)cyclopent-2-en-1-yl)piperazin-1-yl)nicotinamide]	0.501 to 5
O=c1[nH]c(CCCN2CCN(c3ccc(Cl)cc3)CC2)nc2c1CC1(CC2)CC1 [Compound 6, 2′-(3-(4-(4-chlorophenyl)piperazin-1-yl)propyl)-7′,8′-dihydro-3′H-spiro[cyclopropane-1,6′-quinazolin]-4′(5′H)-one]	0.001 to 0.5
O=c1[nH]c(CCCN2CCN(c3cccc(Cl)c3)CC2)nc2c1CC1(CC2)CC1 [Compound 18, 2′-(3-(4-(3-chlorophenyl)piperazin-1-yl)propyl)-7′,8′-dihydro-3′H-spiro[cyclopropane-1,6′-quinazolin]-4′(5′H)-one]	5 to 500
O=c1[nH]c([C@H]2CC[C@@H](N3CCN(c4cccc(F)c4)CC3)C2)nc2c1CC1(CC2)CC1 [Compound 155, 2′-((1S,3R)-3-(4-(3-fluorophenyl)piperazin-1-yl)cyclopentyl)-7′,8′-dihydro-3′H-spiro[cyclopropane-1,6′-quinazolin]-4′(5′H)-one]	0.501 to 5
O=c1[nH]c(C2=C[C@H](N3CCN(c4nccs4)CC3)CC2)nc2c1CC1(CC2)CC1 [Compound 101, (R)-2′-(3-(4-(thiazol-2-yl)piperazin-1-yl)cyclopent-1-en-1-yl)-7′,8′-dihydro-3′H-spiro[cyclopropane-1,6′-quinazolin]-4′(5′H)-one]	0.001 to 0.5
CNC(=O)c1cccnc1N1CCN([C@H]2C=C(c3nc4c(c(=O)[nH]3)CC3(CC4)CC3)CC2)CC1 [Compound 131, (R)—N-methyl-2-(4-(3-(4′-oxo-4′,5′,7′,8′-tetrahydro-3′H-spiro[cyclopropane-1,6′-quinazolin]-2′-yl)cyclopent-2-en-1-yl)piperazin-1-yl)nicotinamide]	0.501 to 5
CC(CCc1nc2c(c(=O)[nH]1)CC1(CC2)CC1)N1CCN(c2ccc(F)cc2)CC1 (centres unmarked) [Compound 21, 2′-(3-(4-(4-fluorophenyl)piperazin-1-yl)butyl)-7′,8′-dihydro-3′H-spiro[cyclopropane-1,6′-quinazolin]-4′(5′H)-one]	0.001 to 0.5
O=c1[nH]c(CCCN2CCN(c3ccccc3)CC2)nc2c1CC1(CC2)CC1 [Compound 13, 2′-(3-(4-phenylpiperazin-1-yl)propyl)-7′,8′-dihydro-3′H-spiro[cyclopropane-1,6′-quinazolin]-4′(5′H)-one]	0.501 to 5
CNC(=O)c1cnc(N2CCN([C@H]3C=C(c4nc5c(c(=O)[nH]4)CC4(CC5)CC4)CC3)CC2)s1 [Compound 104, (R)—N-methyl-2-(4-(3-(4′-oxo-4′,5′,7′,8′-tetrahydro-3′H-spiro[cyclopropane-1,6′-quinazolin]-2′-yl)cyclopent-2-en-1-yl)piperazin-1-yl)thiazole-5-carboxamide]	0.001 to 0.5
